According to ChEMBL document CHEMBL3885881, “DrugMatrix”:

Organism: Rattus norvegicus
Assay: DrugMatrix - Regimen: Daily Repeat
Type: toxicity, organism-based, Sprague-Dawley
Set-up: regimen Daily Repeat, gender Male, age 6-8 weeks
Conditions: in vivo, po, route oral GAVAGE, vehicle .5 % CMC; for ABSOLUTE BASOPHIL / ABSOLUTE EOSINOPHIL / ABSOLUTE LYMPHOCYTE / ABSOLUTE MONOCYTE / ABSOLUTE SEGMENTED NEUTROPHIL / BASOPHIL / EOSINOPHIL / ERYTHROCYTE COUNT / HEMATOCRIT / HEMOGLOBIN / LEUKOCYTE COUNT / LYMPHOCYTE / MEAN CORPUSCULAR HEMOGLOBIN / MEAN CORPUSCULAR HEMOGLOBIN CONCENTRATION / MEAN CORPUSCULAR VOLUME / MONOCYTE / NEUTROPHIL / NUCLEATED RED BLOOD CELLS / PLATELET COUNT: tissue Blood; for ALANINE AMINOTRANSFERASE / ALBUMIN / ALKALINE PHOSPHATASE / ASPARTATE AMINOTRANSFERASE / BLOOD UREA NITROGEN / CARBON DIOXIDE / CHLORIDE / CHOLESTEROL / CREATINE PHOSPHOKINASE / CREATININE / GLUCOSE / LACTATE DEHYDROGENASE / LIPASE / PHOSPHORUS / POTASSIUM / SODIUM / TOTAL BILIRUBIN / TOTAL PROTEIN / URIC ACID: tissue Plasma
[1] = 31 mg/kg, 72 h, dose level Low, time 3 day
[2] = 31 mg/kg, 120 h, dose level Low, time 5 day
[3] = 76 mg/kg, 72 h, dose level High, time 3 day
[4] = 76 mg/kg, 120 h, dose level High, time 5 day

For `O=C1CN(/N=C/c2ccc([N+](=O)[O-])o2)C(=O)N1` [NITROFURANTOIN], the “ABSOLUTE BASOPHIL” value [1] was 0 CELLS/uL, the “ABSOLUTE EOSINOPHIL” value [1] was 106.67 CELLS/uL and the “ABSOLUTE LYMPHOCYTE” value [1] was 13250.33 CELLS/uL. For the same molecule, the “ABSOLUTE MONOCYTE” value [1] was 160 CELLS/uL, the “ABSOLUTE SEGMENTED NEUTROPHIL” value [1] was 1583 CELLS/uL and the BASOPHIL [1] was 0%. The EOSINOPHIL [1] was 0.67%, the “ERYTHROCYTE COUNT” value [1] was 5.65 x10E6/uL and the HEMATOCRIT [1] was 35.43%. For the same molecule, the HEMOGLOBIN [1] was 13.47 G/DL, the “LEUKOCYTE COUNT” value [1] was 15.1 x10E3/uL and the LYMPHOCYTE [1] was 88%. The “MEAN CORPUSCULAR HEMOGLOBIN” value [1] was 23.9 pg, the “MEAN CORPUSCULAR HEMOGLOBIN CONCENTRATION” value [1] was 38.03 G/DL and the “MEAN CORPUSCULAR VOLUME” value [1] was 62.77 fL. The MONOCYTE [1] was 1%, the NEUTROPHIL [1] was 10.33% and the “NUCLEATED RED BLOOD CELLS” value [1] was 0.33 /100WBC. For the same molecule, the “PLATELET COUNT” value [1] was 1275.33 x10E3/uL, the “ALANINE AMINOTRANSFERASE” value [1] was 49.33 u/L and the ALBUMIN [1] was 4.4 G/DL. For the same molecule, the “ALKALINE PHOSPHATASE” value [1] was 440.67 u/L, the “ASPARTATE AMINOTRANSFERASE” value [1] was 85 u/L and the “BLOOD UREA NITROGEN” value [1] was 15.33 mg/dL. For the same molecule, the “CARBON DIOXIDE” value [1] was 22.67 mmol/L, the CHLORIDE [1] was 105.67 MEQ/L and the CHOLESTEROL [1] was 74.67 mg/dL. For the same molecule, the “CREATINE PHOSPHOKINASE” value [1] was 232.33 u/L, the CREATININE [1] was 0.25 mg/dL and the GLUCOSE [1] was 142.33 mg/dL. For the same molecule, the “LACTATE DEHYDROGENASE” value [1] was 280 u/L, the LIPASE [1] was 9.67 u/L and the PHOSPHORUS [1] was 13.57 mg/dL. The POTASSIUM [1] was 6.78 MEQ/L, the SODIUM [1] was 147.27 MEQ/L and the “TOTAL BILIRUBIN” value [1] was 0.27 mg/dL. For the same molecule, the “TOTAL PROTEIN” value [1] was 6.1 G/DL, the “URIC ACID” value [1] was 2.1 mg/dL and the “ABSOLUTE BASOPHIL” value [2] was 0 CELLS/uL. For the same molecule, the “ABSOLUTE EOSINOPHIL” value [2] was 48 CELLS/uL, the “ABSOLUTE LYMPHOCYTE” value [2] was 14184 CELLS/uL and the “ABSOLUTE MONOCYTE” value [2] was 368 CELLS/uL. The “ABSOLUTE SEGMENTED NEUTROPHIL” value [2] was 1000 CELLS/uL, the BASOPHIL [2] was 0% and the EOSINOPHIL [2] was 0.33%. For the same molecule, the “ERYTHROCYTE COUNT” value [2] was 5.46 x10E6/uL, the HEMATOCRIT [2] was 34.3% and the HEMOGLOBIN [2] was 13.23 G/DL. For the same molecule, the “LEUKOCYTE COUNT” value [2] was 15.6 x10E3/uL, the LYMPHOCYTE [2] was 90.67% and the “MEAN CORPUSCULAR HEMOGLOBIN” value [2] was 24.3 pg. The “MEAN CORPUSCULAR HEMOGLOBIN CONCENTRATION” value [2] was 38.57 G/DL, the “MEAN CORPUSCULAR VOLUME” value [2] was 62.93 fL and the MONOCYTE [2] was 2.33%. The NEUTROPHIL [2] was 6.67%, the “NUCLEATED RED BLOOD CELLS” value [2] was 0.33 /100WBC and the “PLATELET COUNT” value [2] was 1440 x10E3/uL. For the same molecule, the “ALANINE AMINOTRANSFERASE” value [2] was 44.67 u/L, the ALBUMIN [2] was 4.27 G/DL and the “ALKALINE PHOSPHATASE” value [2] was 262 u/L. For the same molecule, the “ASPARTATE AMINOTRANSFERASE” value [2] was 72.33 u/L, the “BLOOD UREA NITROGEN” value [2] was 13.67 mg/dL and the “CARBON DIOXIDE” value [2] was 25.67 mmol/L. The CHLORIDE [2] was 106.33 MEQ/L, the CHOLESTEROL [2] was 58.33 mg/dL and the “CREATINE PHOSPHOKINASE” value [2] was 186 u/L. The CREATININE [2] was 0.19 mg/dL, the GLUCOSE [2] was 159 mg/dL and the “LACTATE DEHYDROGENASE” value [2] was 76.67 u/L. The LIPASE [2] was 11.67 u/L, the PHOSPHORUS [2] was 12.87 mg/dL and the POTASSIUM [2] was 6.41 MEQ/L. The SODIUM [2] was 147.13 MEQ/L, the “TOTAL BILIRUBIN” value [2] was 0.17 mg/dL and the “TOTAL PROTEIN” value [2] was 5.97 G/DL. The “URIC ACID” value [2] was 2.1 mg/dL, the “ABSOLUTE BASOPHIL” value [3] was 0 CELLS/uL and the “ABSOLUTE EOSINOPHIL” value [3] was 0 CELLS/uL. For the same molecule, the “ABSOLUTE LYMPHOCYTE” value [3] was 13972.67 CELLS/uL, the “ABSOLUTE MONOCYTE” value [3] was 336.33 CELLS/uL and the “ABSOLUTE SEGMENTED NEUTROPHIL” value [3] was 1224.33 CELLS/uL. The BASOPHIL [3] was 0%, the EOSINOPHIL [3] was 0% and the “ERYTHROCYTE COUNT” value [3] was 5.83 x10E6/uL. The HEMATOCRIT [3] was 38.1%, the HEMOGLOBIN [3] was 13.73 G/DL and the “LEUKOCYTE COUNT” value [3] was 15.53 x10E3/uL. The LYMPHOCYTE [3] was 89.33%, the “MEAN CORPUSCULAR HEMOGLOBIN” value [3] was 23.53 pg and the “MEAN CORPUSCULAR HEMOGLOBIN CONCENTRATION” value [3] was 36 G/DL. The “MEAN CORPUSCULAR VOLUME” value [3] was 65.37 fL, the MONOCYTE [3] was 2.33% and the NEUTROPHIL [3] was 8.33%. The “NUCLEATED RED BLOOD CELLS” value [3] was 0 /100WBC, the “PLATELET COUNT” value [3] was 1452.67 x10E3/uL and the “ALANINE AMINOTRANSFERASE” value [3] was 48.67 u/L. The ALBUMIN [3] was 4.37 G/DL, the “ALKALINE PHOSPHATASE” value [3] was 355.67 u/L and the “ASPARTATE AMINOTRANSFERASE” value [3] was 77 u/L. The “BLOOD UREA NITROGEN” value [3] was 14.33 mg/dL, the “CARBON DIOXIDE” value [3] was 25 mmol/L and the CHLORIDE [3] was 103.67 MEQ/L. For the same molecule, the CHOLESTEROL [3] was 77 mg/dL, the “CREATINE PHOSPHOKINASE” value [3] was 150 u/L and the CREATININE [3] was 0.21 mg/dL. For the same molecule, the GLUCOSE [3] was 208.33 mg/dL, the “LACTATE DEHYDROGENASE” value [3] was 99 u/L and the LIPASE [3] was 9.67 u/L. It also gave a PHOSPHORUS [3] of 13.23 mg/dL, a POTASSIUM [3] of 6.13 MEQ/L and an SODIUM [3] of 146.97 MEQ/L. The “TOTAL BILIRUBIN” value [3] was 0.23 mg/dL, the “TOTAL PROTEIN” value [3] was 6.1 G/DL and the “URIC ACID” value [3] was 2.37 mg/dL. For the same molecule, the “ABSOLUTE BASOPHIL” value [4] was 0 CELLS/uL, the “ABSOLUTE EOSINOPHIL” value [4] was 34.67 CELLS/uL and the “ABSOLUTE LYMPHOCYTE” value [4] was 10550 CELLS/uL. For the same molecule, the “ABSOLUTE MONOCYTE” value [4] was 260.33 CELLS/uL, the “ABSOLUTE SEGMENTED NEUTROPHIL” value [4] was 1188.33 CELLS/uL and the BASOPHIL [4] was 0%. The EOSINOPHIL [4] was 0.33%, the “ERYTHROCYTE COUNT” value [4] was 5.54 x10E6/uL and the HEMATOCRIT [4] was 34.03%. For the same molecule, the HEMOGLOBIN [4] was 12.9 G/DL, the “LEUKOCYTE COUNT” value [4] was 12.03 x10E3/uL and the LYMPHOCYTE [4] was 88%. For the same molecule, the “MEAN CORPUSCULAR HEMOGLOBIN” value [4] was 23.27 pg, the “MEAN CORPUSCULAR HEMOGLOBIN CONCENTRATION” value [4] was 37.9 G/DL and the “MEAN CORPUSCULAR VOLUME” value [4] was 61.4 fL. For the same molecule, the MONOCYTE [4] was 2%, the NEUTROPHIL [4] was 9.67% and the “NUCLEATED RED BLOOD CELLS” value [4] was 0 /100WBC. The “PLATELET COUNT” value [4] was 1320 x10E3/uL, the “ALANINE AMINOTRANSFERASE” value [4] was 44.67 u/L and the ALBUMIN [4] was 4.2 G/DL. The “ALKALINE PHOSPHATASE” value [4] was 279.67 u/L, the “ASPARTATE AMINOTRANSFERASE” value [4] was 85.67 u/L and the “BLOOD UREA NITROGEN” value [4] was 17 mg/dL. The “CARBON DIOXIDE” value [4] was 25.67 mmol/L, the CHLORIDE [4] was 105 MEQ/L and the CHOLESTEROL [4] was 70 mg/dL. The “CREATINE PHOSPHOKINASE” value [4] was 220 u/L, the CREATININE [4] was 0.18 mg/dL and the GLUCOSE [4] was 163.33 mg/dL. The “LACTATE DEHYDROGENASE” value [4] was 160.67 u/L, the LIPASE [4] was 9.33 u/L and the PHOSPHORUS [4] was 12.57 mg/dL. The POTASSIUM [4] was 6.4 MEQ/L, the SODIUM [4] was 146.63 MEQ/L and the “TOTAL BILIRUBIN” value [4] was 0.2 mg/dL. The “TOTAL PROTEIN” value [4] was 5.87 G/DL and the “URIC ACID” value [4] was 2.37 mg/dL.
